Tests used:
[1] = tested on: RIDD (IRE1α-dependent mRNA decay); assay: RIDD (Blos1 mRNA) in ER-stressed INS-1 cells; type: cell-based, rat; conditions: 2 mM DTT, 20 μM compound
Method: RNA Isolation, Quantitative Real-Time PCR, and Primers
INS-1 or isogenic IRE1α-overexpressing INS-1 cells were plated onto Poly-D-Lysine coated tissue culture plate and grown for 48 hrs. Inhibitors or DMSO were added to the media and incubated for 1 hour at 37° C. with 5% CO2 prior to addition of ER stress agents or Dox as indicated. RNA was isolated from whole cells using either QIAGEN RNeasy Mini kits or Trizol (Invitrogen) and reverse transcribed as above to obtain total cDNA. Then, XBP-1 primers were used to amplify an XBP-1 amplicon spanning the 26 nt intron from the cDNA samples in a regular 3-step PCR. Thermal cycles were: 5 min at 95° C., 30 cycles of 30 s at 95° C., 30 s at 60° C., and 1 min at 72° C., followed by 72° C. for 15 min, and hold at 4° C. Primers used for XBP-1 mRNA splicing were as follows: sense primer XBP1.3 S (5′ […]-3′ (SEQ ID NO:2)) and antisense primer XBP1.2AS (5′-[…]-3′ (SEQ ID NO:3)). PCR fragments were then digested by PstI, resolved on 3% agarose gels, stained with EtBr and quantified by densitometry using ImageJ (NIH). For standard mRNA detection, generally […] total RNA was reverse transcribed using the QuantiTect Reverse Transcription Kit (QIAGEN). For qPCR, we used SYBR green (QIAGEN) and StepOnePlus Real-Time PCR System (Applied Biosystems). Thermal cycles were: 5 min at 95° C., 40 cycles of 15 sec at 95° C., 30 sec at 60° C. […]

IRE1α = target: T1, IRE1α (Rattus norvegicus, UniProt A0A4Y1YQ52); assay: ER stress-mediated IRE1α autophosphorylation by Phos-tag SDS-PAGE in INS-1 cells (Brefeldin-A); type: cell-based; conditions: various concentrations, 200 ng/μL Brefeldin-A (BFA) for 2 hours
T1 construct: endogenous in cells; host or cells: INS-1 rat insulinoma beta cells
Method: FIG. 21. […] Immunoblots for total IRE1α (bottom) from INS-1 cells treated with various concentrations of PAIR1 or KIRA9 followed by the addition of 200 ng/μL Brefeldin-A (BFA) for 2 hours. Samples were subjected to Phos-tag SDS-PAGE and % autophosphorylated IRE1α (top) was determined from the ratio of phosphorylated IRE1α relative to total IRE1α. Values shown are mean±SEM (n=3).
Treatment Conditions for Phostag Gels
INS-1 or IRE1α-overexpressing isogenic INS-1 cells were plated onto a 24-well Poly-D-Lysine coated tissue culture plate and grown for 48 hrs. Inhibitor or DMSO were added to the media and incubated for 1 hour at 37° C. with 5% CO2 prior to addition of ER stress agents. […] Cells were lysed directly into SDS loading buffer (50 mM Tris, 100 mM DTT, 2% SDS (w/v), 10% glycerol (v/v), and 0.1% bromophenol blue (w/v), pH 6.8) and boiled for five minutes prior to gel loading.
Phostag Acrylamide Gel Procedure
A phostag acrylamide gel recipe used to resolve phosphorylation of IRE1α has been previously established and this recipe was followed verbatim for this study.^91 Resolving gels were allowed to solidify (˜1.5 hr) before adding the stacking gel and comb and allowed to solidify (˜1 hr). Gels were run using Tris-Glycine-SDS running buffer (25 mM Tris, 192 mM glycine, 0.1% SDS, pH 8.3) at 100 V for 3-3.5 hours. […]

mouse splenocytes = assay: LPS-induced differentiation of mouse splenocytes into plasma cells (flow cytometry, IgM ELISA); type: cell-based; conditions: 1 μg/mL LPS, three days; for IgM secretion / plasma cell (CD138+) differentiation: 20 μM-1.25 μM
Method: Therefore, we sought to compare the sensitivity of this process to both KIRAs and PAIRs. To this end, we assessed how KIRA8, KIRA9, and PAIR1 affected the differentiation of lipopolysaccharide (LPS)-treated mouse splenocytes into antibody-secreting plasma cells. Total live number of CD19+ B-cells were assessed and plasma cells were quantified on the basis of B220 downregulation and CD138 expression by flow cytometry (FIGS. 6A-6C, FIG. 24). Concomitantly, secreted IgM was measured in the cell culture supernatants by ELISA (FIG. 6C).
Splenocyte Isolation and Differentiation
Red blood cells were lysed with ammonium chloride potassium buffer. Splenocytes were plated at 2.5×10^5 cells/well in a 96-well round bottom plate in complete media. The splenocytes were treated with or without 1 μg/ml LPS 026:b6 (Sigma). […] The splenocytes were incubated for three days in a 37° C., 5% CO2 humidified chamber before collection and staining for flow cytometry.
Cells from the plasma cell assay were collected in a 96-well plate and washed with PBS followed by staining with LIVE/DEAD Fixable Near-IR Dead Cell Stain kit (Invitrogen). Reagent was reconstituted as per manufacturer's instructions, diluted 1:1000 in PBS, and cells were stained in 100 μL on ice for 20 minutes. The cells were then washed with FACS buffer, PBS (Corning), 2 mM EDTA and 2% heat inactivated fetal bovine serum (Omega Scientific). The cells were then stained with 50 μL antibody cocktail consisting of anti-CD19 (BioLegend), anti-CD45R (BD Pharmingen), and anti-CD138 (BioLegend) in FACS buffer on ice for 15 minutes. Cells were resuspended in FACS buffer and combined with an equal volume of 4% paraformaldehyde with 5000 Countbright Absolute Counting Beads (Thermofisher). Stained cells were analyzed on a Fortessa (Becton Dickinson). Data analysis was performed using FlowJo (v10) software (Treestar Inc.).
Media supernatants from the in vitro plasma cell differentiation assay were measured for secreted IgM by ELISA. […] Wash buffer (PBS with 0.05% Tween-20 (v/v)) was used for all washing steps and blocked with PBS-BB (PBS without Ca^2+/Mg^2+, 1% BSA (w/v), 0.05% Tween-20 (v/v)). Supernatants from LPS stimulated samples were diluted (1:100) and media only samples were diluted (1:10) in PBS-BB. […] ELISA plates were developed with TMB (Sigma) and stopped with 1N sulfuric acid. Absorbance was measured at 450 nm using spectrophotometer (Spectramax M5, Molecular Devices). Sample IgM concentration values were calculated with SoftMaxPro software.

T1 sequence (A0A4Y1YQ52 21-977): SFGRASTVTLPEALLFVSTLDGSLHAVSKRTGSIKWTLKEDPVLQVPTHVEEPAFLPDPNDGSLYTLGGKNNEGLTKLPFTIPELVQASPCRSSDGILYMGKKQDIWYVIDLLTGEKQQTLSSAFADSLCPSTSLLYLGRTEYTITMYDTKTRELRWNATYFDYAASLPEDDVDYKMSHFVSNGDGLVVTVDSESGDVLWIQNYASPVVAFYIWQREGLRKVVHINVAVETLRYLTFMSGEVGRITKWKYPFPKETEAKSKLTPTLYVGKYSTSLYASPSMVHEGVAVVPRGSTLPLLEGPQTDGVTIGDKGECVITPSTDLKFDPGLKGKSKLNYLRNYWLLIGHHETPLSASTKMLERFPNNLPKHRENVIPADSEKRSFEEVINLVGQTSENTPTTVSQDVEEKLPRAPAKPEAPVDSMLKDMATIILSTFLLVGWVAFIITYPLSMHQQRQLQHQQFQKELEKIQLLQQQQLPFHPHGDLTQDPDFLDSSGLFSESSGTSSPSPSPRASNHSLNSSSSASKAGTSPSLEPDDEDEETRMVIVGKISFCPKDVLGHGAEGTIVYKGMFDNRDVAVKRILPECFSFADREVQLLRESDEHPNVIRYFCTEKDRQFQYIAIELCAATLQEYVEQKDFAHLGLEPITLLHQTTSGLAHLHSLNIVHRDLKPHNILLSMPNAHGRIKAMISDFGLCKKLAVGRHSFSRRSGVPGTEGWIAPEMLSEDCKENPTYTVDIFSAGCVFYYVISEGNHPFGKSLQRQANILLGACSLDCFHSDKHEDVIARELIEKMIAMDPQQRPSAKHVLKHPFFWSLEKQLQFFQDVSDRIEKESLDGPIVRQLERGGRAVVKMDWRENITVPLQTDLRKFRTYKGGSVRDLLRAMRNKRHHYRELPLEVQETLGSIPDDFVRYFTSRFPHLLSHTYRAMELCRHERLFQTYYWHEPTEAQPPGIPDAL

| Compound | RIDD (Blos1 mRNA) [1] | IRE1α autophosphorylation (IRE1α) | overall number of B cells (CD19+), general toxicity (mouse splenocytes) | IgM secretion (mouse splenocytes) | plasma cell (CD138+) differentiation (mouse splenocytes) |
| --- | --- | --- | --- | --- | --- |
| O=S(=O)(CC(F)(F)F)Nc1ccc(Oc2ncccc2-c2ccnc(N[C@H]3CCCNC3)n2)c2ccccc12 (stereo in doubt) [PAIR1, 2,2,2-trifluoro-N-(4-(3-(2-(piperidin-3-ylamino)pyrimidin-4-yl)pyridin-2-yloxy)naphthalen-1-yl)ethanesulfonamide] | equivalently blunt RIDD | equipotently block ER stress-mediated IRE1α autophosphorylation | neither PAIR1 nor KIRA9 reduced the overall number of B cells | more modest inhibition | more modest inhibition |
| O=S(=O)(CCC(F)(F)F)Nc1ccc(Oc2ncccc2-c2ccnc(NC3CCCNC3)n2)c2ccccc12 (stereo not shown) [KIRA9, 3,3,3-trifluoro-N-(4-(3-(2-(piperidin-3-ylamino)pyrimidin-4-yl)pyridin-2-yloxy)naphthalen-1-yl)propane-1-sulfonamide] | equivalently blunt RIDD | equipotently block ER stress-mediated IRE1α autophosphorylation | neither PAIR1 nor KIRA9 reduced the overall number of B cells | reductions in both plasma cell differentiation and IgM secretion in a dose-dependent manner | reductions in both plasma cell differentiation and IgM secretion in a dose-dependent manner |
